Experimental data as given in PMC6150412, “Design, Synthesis, and Evaluation of Novel Phenolic Acid/Dipeptide/Borneol Hybrids as Potent Angiotensin Converting Enzyme (ACE) Inhibitors with Anti-hypertension Activity” (Molecules : A Journal of Synthetic Chemistry and Natural …, 2017).

Assays:
[1] = test system: spontaneously hypertensive rats (SHRs); experiment: Acute antihypertensive test, single intragastric dose, tail-cuff BP; type: in vivo, rat; settings: for Duration of antihypertensive activity / Reduction in blood pressure (systolic arterial pressure) compared with lisinopril: single oral dose; for Reduction in blood pressure (systolic arterial pressure) compared with lisinopril: same molar dose as lisinopril
Experimental: (§1) All the experiments were approved by the Institutional Animal Ethics Committee of Northwest University. Experiments were carried out on spontaneously hypertension rats (SHRs) that were 9–10 weeks old and weighed 200–220 g. SHRs treated with normal saline were used as controls. Lisinopril was used as a standard drug. Blood pressure (BP) was recorded automatically every day by the indirect tail-cuff method using an electrosphygmomanometer (BP-2010A Storage Pressure Meter). […] The BP were measured before and 0.5, 1, 2, 3, 4, 5 and 6 h after a single dose of intragastrical administration of active compounds.
(§2) Figure 4 (A,B), the acute antihypertensive activity of compounds 7a and 7g in spontaneously hypertension rats (SHRs) for single dose administration (dosing time: 0 min); (C) the therapeutic antihypertensive activity of compounds 7a and 7g in SHRs for 7 days treatment (dosing time: 0 day; blood pressure (BP) measured time: 9:30–11:30 am). Data are presented as mean ± SEM, n = 6. The BP was determined with a BP-2010A Storage Pressure Meter. This system measures BP by recording the cuff pressure at which the interrupted blood flow returns to the tail. Before drug administration, training consisted of five sessions over 3 days. The SHRs were placed into a thermostatically controlled Lucite box of the Visitech system BP2010A, and heated on a heated pad maintained at 37 °C for 2 min before BP measurement started. The tail root of SHR was surrounded by an inflatable tubular sleeve, and a pulse electron detector was placed in the root of the tails. Then BP was measured after the computer provided a stable signal. The BP for the session was accepted as the average of five BP readings that were within 10 mm Hg. The average BP values were calculated by employing the ANOVA method.

[2] = test system: spontaneously hypertensive rats (SHRs); experiment: Therapeutic antihypertensive test, 7 consecutive days oral treatment, tail-cuff BP; type: in vivo, rat; settings: for Maximum antihypertensive effect compared with lisinopril (20 mg/kg/day): 100 mg/kg daily, oral, 7 days; for Blood pressure during repeated treatment: 100 mg/kg, Po. 7 days
Experimental: as §1, §2

[3] = molecular target: T1, angiotensin converting enzyme (ACE) (Oryctolagus cuniculus, UniProt P12822); experiment: In vitro ACE inhibition assay (hippuric acid release from HHL); type: biochemical; settings: HHL substrate, pH 8.3, 37 °C, 15 min; five concentrations 0.01–10 µM; read-out: ACE-inhibitory activity IC50
T1 construct: purchased Sigma-aldrich, St. Louis, MO, USA A-6778
T1 sequence (P12822 34-1310): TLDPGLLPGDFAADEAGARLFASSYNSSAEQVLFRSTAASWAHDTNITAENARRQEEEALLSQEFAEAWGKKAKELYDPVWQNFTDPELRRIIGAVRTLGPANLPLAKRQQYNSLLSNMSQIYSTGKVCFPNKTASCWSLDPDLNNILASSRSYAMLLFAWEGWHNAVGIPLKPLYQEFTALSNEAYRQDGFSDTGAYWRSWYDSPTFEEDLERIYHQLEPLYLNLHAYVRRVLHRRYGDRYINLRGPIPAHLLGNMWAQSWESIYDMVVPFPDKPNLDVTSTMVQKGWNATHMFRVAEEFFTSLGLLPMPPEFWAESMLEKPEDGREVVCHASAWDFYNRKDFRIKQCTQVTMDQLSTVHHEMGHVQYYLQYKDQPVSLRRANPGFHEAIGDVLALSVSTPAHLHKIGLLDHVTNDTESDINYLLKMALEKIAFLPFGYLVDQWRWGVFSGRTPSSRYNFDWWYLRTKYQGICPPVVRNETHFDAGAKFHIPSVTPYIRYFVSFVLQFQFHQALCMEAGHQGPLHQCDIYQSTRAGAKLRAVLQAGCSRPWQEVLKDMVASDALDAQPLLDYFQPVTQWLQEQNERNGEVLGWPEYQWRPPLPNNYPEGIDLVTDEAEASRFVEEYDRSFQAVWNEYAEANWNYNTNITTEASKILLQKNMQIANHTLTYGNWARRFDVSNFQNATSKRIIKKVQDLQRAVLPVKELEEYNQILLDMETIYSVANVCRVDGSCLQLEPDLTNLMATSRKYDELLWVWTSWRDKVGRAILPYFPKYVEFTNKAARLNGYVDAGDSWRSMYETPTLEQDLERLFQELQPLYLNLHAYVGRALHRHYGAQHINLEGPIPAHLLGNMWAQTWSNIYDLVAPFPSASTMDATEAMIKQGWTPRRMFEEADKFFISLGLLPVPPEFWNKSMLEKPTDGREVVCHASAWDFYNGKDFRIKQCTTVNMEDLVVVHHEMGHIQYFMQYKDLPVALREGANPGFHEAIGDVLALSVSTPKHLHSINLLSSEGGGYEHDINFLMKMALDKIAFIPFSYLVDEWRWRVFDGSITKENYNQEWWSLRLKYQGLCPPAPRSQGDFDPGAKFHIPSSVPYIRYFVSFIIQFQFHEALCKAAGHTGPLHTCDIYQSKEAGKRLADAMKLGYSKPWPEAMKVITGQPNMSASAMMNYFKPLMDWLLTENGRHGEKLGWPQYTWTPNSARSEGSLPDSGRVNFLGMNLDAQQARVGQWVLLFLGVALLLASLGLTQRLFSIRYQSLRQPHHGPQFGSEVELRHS
Experimental: The in vitro ACE-inhibitory activity of the newly synthesized compounds was evaluated using ACE inhibition assay (Sigma-aldrich, St. Louis, MO, USA, No. A-6778). The experiments were carried out for all the designed compounds (7a–7h), for ACE-inhibitory activity at five different concentrations (0.01–10 µM). Lisinopril, a well-known ACE inhibitor drug, was used as standard for comparison with the inhibitory activity of synthesized compounds. The ACE-inhibitory activity can be calculated by the following equation: ACE-inhibitory activity (inhibition rate %) = [(Ablank1 − Asample)/(Ablank1 − Ablank2)] × 100, where blank 1: Positive control (without ACE inhibition) and blank 2: Reagent blank. Then we measured and calculated the IC50 values of the designed compounds (7a–7h).
The preliminary biological investigations were conducted in vitro using the ACE-inhibition assay. […] That is, the activity of these compounds gradually declined when the size of the amino acid side chain increased. Besides, the influence of phenolic acids on ACE-inhibitory activity was more obvious following the order: protocatechuic acid > ferulic acid > gallic acid > 3,4-dihydroxybenzene acid. That is, substituents in positions 3 and 4 in the benzene ring are beneficial to the increase of ACE-inhibitory activity. At the same time, the shorter the amino side chain in phenolic acids, the better the ACE-inhibitory activity.

Row | IC50 [3] [µM] | Compound | Onset of antihypertensive activity after oral treatment [1] [h] | Duration of antihypertensive activity [1] | Reduction in blood pressure (systolic arterial pressure) compared with lisinopril [1] | Maximum antihypertensive effect compared with lisinopril (20 mg/kg/day) [2] | Blood pressure during repeated treatment [2]
1 | 13.5 ± 2.02 | CC(C)[C@H](NC(=O)c1cc(O)c(O)c(O)c1)C(=O)N1CCC[C@H]1C(=O)OC1CC2CCC1(C)C2(C)C (stereo partly shown) [Compound 7d] |  |  |  |  | 
2 | 10.6 ± 1.72 | CC(C)C[C@H](NC(=O)c1ccc(O)c(O)c1)C(=O)N1CCC[C@H]1C(=O)OC1CC2CCC1(C)C2(C)C (stereo partly shown) [Compound 7e] |  |  |  |  | 
3 | 14 ± 1.84 | CC(C)C[C@H](NC(=O)Cc1ccc(O)c(O)c1)C(=O)N1CCC[C@H]1C(=O)OC1CC2CCC1(C)C2(C)C (stereo partly shown) [Compound 7f] |  |  |  |  | 
4 | 6.88 ± 0.85 | COc1cc(/C=C/C(=O)N[C@@H](CC(C)C)C(=O)N2CCC[C@H]2C(=O)OC2CC3CCC2(C)C3(C)C)ccc1O (stereo partly shown) [Compound 7g] | 0.5 | four | slightly better than that of lisinopril | approximately equivalent to that of lisinopril | decreased remarkably on the second day after oral administration
5 | 13.2 ± 2.47 | CC(C)C[C@H](NC(=O)c1cc(O)c(O)c(O)c1)C(=O)N1CCC[C@H]1C(=O)OC1CC2CCC1(C)C2(C)C (stereo partly shown) [Compound 7h] |  |  |  |  | 

More lines, now with the values behind:

Row | Compound | IC50 [3] [µM] | Onset of antihypertensive activity after oral treatment [1] [h] | Duration of antihypertensive activity [1] | Reduction in blood pressure (systolic arterial pressure) compared with lisinopril [1] | Maximum antihypertensive effect compared with lisinopril (20 mg/kg/day) [2] | Blood pressure during repeated treatment [2]
6 | CC(C)[C@H](NC(=O)c1ccc(O)c(O)c1)C(=O)N1CCC[C@H]1C(=O)OC1CC2CCC1(C)C2(C)C (stereo partly shown) [Compound 7a] | 6.76 ± 0.96 | 0.5 | four | slightly better than that of lisinopril | approximately equivalent to that of lisinopril | decreased remarkably on the second day after oral administration
7 | CC(C)[C@H](NC(=O)Cc1ccc(O)c(O)c1)C(=O)N1CCC[C@H]1C(=O)OC1CC2CCC1(C)C2(C)C (stereo partly shown) [Compound 7b] | 13.9 ± 1.61 |  |  |  |  | 
8 | COc1cc(/C=C/C(=O)N[C@H](C(=O)N2CCC[C@H]2C(=O)OC2CC3CCC2(C)C3(C)C)C(C)C)ccc1O (stereo partly shown) [Compound 7c] | 11.9 ± 1.82 |  |  |  |  | 
9 | NCCCC[C@H](N[C@@H](CCc1ccccc1)C(=O)O)C(=O)N1CCC[C@H]1C(=O)O [Lisinopril, reference compound] | < 0.01 |  |  |  |  | 
